Target: T1, human β3 receptors (Homo sapiens, UniProt P13945)
T1 construct: Full length β3 AR clones (402 amino acids) containing the last 6 amino acids of hβ3—AR; expressed in transfected cells; host or cells: CHO cells
Test: cAMP response (SPA) in CHO cells expressing cloned human β3 adrenergic receptor
Type: cell-based
Conditions: for EC50: CHO cells expressing human β3 receptor, cAMP, 30 min incubation, 10^−9 M to 10^−5 M; for IA(β3): maximal response compared to the maximal response of isoproterenol at 10^−5 M
Method: Binding to the receptors was measured in Chinese Hamster ovary (CHO) cells that were transfected with adrenergic receptors.
Cloning of Human β3-AR Genomic DNA: cDNA was constructed by ligating four polymerase chain reaction (PCR) products using the following primers: an ATG-NarI fragment, sense primer 5′-[…]3′ and anti-sense primer 5′ […]3′; a NarI-AccI fragment, 5′ […]3′ as sense and 5′ […]3′ as anti-sense primer; an AccIi-StyI fragment, sense primer 5′ […]3′ and anti-sense primer 5′ […]3′ and a StyI-TAG fragment, with sense primer 5′ […]3′ and anti-sense primer 5′ […]3′. The corresponding primer sequences are described in Mantzoros, C. […] The four fragments are ligated into a pUC 18 plasmid (Gibco-BRL) and sequenced.
CHO cells were grown in 24-well tissue culture plates in Dulbecco's Modified Eagle Media with 10% fetal bovine serum, MEM non-essential amino acids, Penicillin-Streptompycin and Geneticin. […] Isoproterenol (10^−5 M) was used as an internal standard for comparison of activity. Cells were incubated at 37° C. on a rocker for 30 min with the β3 cells and 15 min for β1 and β2 cells. Incubation was stopped with the addition of 0.2N HCl and neutralized with 2.5N NaOH. The plates, containing the cells and neutralized media, were stored at −20 degrees celsius until ready to test for cAMP using the SPA test kit (Amersham).
Data Analysis and Results: Data collected from the SPA test procedure were analyzed as per cent of the maximal isoproterenol response at 10^−5 M. Activity curves were plotted using the SAS statistical and graphics software.

T1 sequence (P13945 whole entry): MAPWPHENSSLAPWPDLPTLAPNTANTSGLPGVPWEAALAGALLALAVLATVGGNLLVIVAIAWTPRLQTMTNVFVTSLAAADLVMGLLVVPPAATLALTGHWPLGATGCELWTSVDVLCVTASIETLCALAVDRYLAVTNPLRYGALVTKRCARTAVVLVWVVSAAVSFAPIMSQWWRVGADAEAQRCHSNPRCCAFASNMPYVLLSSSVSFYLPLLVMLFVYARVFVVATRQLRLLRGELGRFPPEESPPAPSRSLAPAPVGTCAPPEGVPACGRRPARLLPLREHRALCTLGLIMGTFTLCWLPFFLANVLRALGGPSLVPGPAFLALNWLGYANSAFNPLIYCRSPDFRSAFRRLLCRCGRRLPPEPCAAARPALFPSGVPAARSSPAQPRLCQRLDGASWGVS

| EC50 | IA(β3) | SMILES |
| --- | --- | --- |
| 305 nM | 0.9 | CCOC(=O)c1cccc(NC(=O)N2CCC(CNC[C@H](O)COc3ccc(O)cc3)CC2)c1 [Example 52, 3-[(4-{[(2S)-2-Hydroxy-3-(4-hydroxy-phenoxy)-propylamino]-methyl}-piperidine-1-carbonyl)-amino]-benzoic Acid Ethyl Ester] |
| 110 nM | 0.53 | O=C(NC1CCCCC1)N1CCC(CNC[C@H](O)COc2cccc3[nH]c4ccccc4c23)CC1 [Example 56, 4-{[(2S)-3-(9H-Carbazol-4-yloxy)-2-hydroxy-propylamino]-methyl}-piperidine-1-carboxylic Acid Cyclohexylamide] |
| 3190 nM | 0.46 | O=C(NC1CCCCC1)N1CCC(CNC[C@H](O)COc2ccc(O)cc2)CC1 [Example 57, 4-{[(2S)-2-Hydroxy-3-(4-hydroxy-phenoxy)-propylamino]-methyl}-piperidine-1-carboxylic Acid Cyclohexylamide] |
| 97 nM | 0.4 | Cc1cc2cccc(OC[C@@H](O)CNCC3CCN(S(=O)(=O)c4ccc(NC(=O)Nc5ccccc5)cc4)CC3)c2[nH]1 [Example 61, 1-[4-(4-{[(2S)-2-Hydroxy-3-(2-methyl-1H-indol-7-yloxy)-propylamino]-methyl}-piperidine-1-sulfonyl)-phenyl]-3-phenyl-urea] |
| 10 nM | 0.68 | O=C(Nc1ccccc1)Nc1ccc(S(=O)(=O)N2CCC(CNC[C@H](O)COc3cccc4[nH]c(=O)[nH]c34)CC2)cc1 [Example 62, 1-[4-(4-{[2-Hydroxy-3-(2-oxo-2,3-dihydro-1H-benzoimidazol-4-yloxy)-propylamino]-methyl}-piperidine-1-sulfonyl)-phenyl]-3-phenyl-urea] |
| 20 nM | 1.2 | CS(=O)(=O)Nc1cc([C@@H](O)CNCC2CCN(S(=O)(=O)c3ccc(NC(=O)Nc4ccccn4)cc3)CC2)ccc1O [Example 67, N-{2-Hydroxy-5-[(1R)-1-hydroxy-2-({1-[4-(3-pyridin-2-yl-ureido)-benzenesulfonyl]-piperidin-4-ylmethyl}-amino)-ethyl]-phenyl}-methanesulfonamide] |
| 96 nM | 0.6 | CCCCCCCCNC(=O)Nc1ccc(S(=O)(=O)N2CCC(CNCC(O)COc3cccc4[nH]c(C(N)=O)cc34)CC2)cc1 (stereo not drawn) [Example 71, 4-[2-Hydroxy-3-({1-[4-(3-octyl-ureide)-benzenesulfonyl]-piperidin-4-ylmethyl}-amino)-propoxy]-1H-indole-2-carboxylic Acid Amide] |
| 6 nM | 1 | CCCCCCCCNC(=O)Nc1ccc(S(=O)(=O)N2CCC(CNC[C@H](O)c3ccc(O)c(NS(C)(=O)=O)c3)CC2)cc1 [Example 73, (R)-N-{2-Hydroxy-5-[1-hydroxy-2-({1-[4-(3-octyl-ureido)-benzenesulfonyl]-piperidin-4-ylmethyl}-amino)-ethyl]-phenyl}-methanesulfonamide] |
| 5 nM | 1.1 | CS(=O)(=O)Nc1cc([C@@H](O)CNCC2CCN(S(=O)(=O)c3ccc(NC(=O)NCCc4cc(F)ccc4F)cc3)CC2)ccc1O [Example 81, N-{5-[(1R)-2-({[1-({4-[({[2-(2,5-difluorophenyl)ethyl]amino]-carbonyl)amino}-phenyl}sulfonyl)piperidin-4-yl]methyl}amino)-1-hydroxyethyl]-2-hydroxyphenyl}-methanesulfonamide] |
| 112 nM | 1.2 | O=C(Nc1ccc(S(=O)(=O)N2CCC(CNC[C@H](O)COc3ccc(O)cc3)CC2)cc1)Nc1c(F)cccc1F [Example 83] |
| 27 nM | 0.93 | CC(C)N(Cc1c(F)cccc1F)C(=O)Nc1ccc(S(=O)(=O)N2CCC(CNC[C@H](O)c3ccc(O)c(NS(C)(=O)=O)c3)CC2)cc1 [Example 84, N-(5-{(1R)-2-[(1-{4-[3-(2,6-Difluoro-benzyl)-3-isopropyl-ureido]-benzenesulfonyl}-piperidin-4-ylmethyl)-amino]-1-hydroxy-ethyl}-2-hydroxy-phenyl)-methane-sulfonamide] |
| 29 nM | 1.2 | CN(Cc1c(F)cccc1F)C(=O)Nc1ccc(S(=O)(=O)N2CCC(CNC[C@H](O)c3ccc(O)c(NS(C)(=O)=O)c3)CC2)cc1 [Example 85, N-(5-{2-[(1-{4-[3-(2,6-Difluoro-benzyl)-3-methyl-ureido]-benzenesulfonyl}-piperidin-4-ylmethyl)-amino]-1-hydroxy-ethyl}-2-hydroxy-phenyl)-methanesulfonamide] |
| 7 nM | 1 | CN(Cc1cc(F)ccc1F)C(=O)Nc1ccc(S(=O)(=O)N2CCC(CNC[C@H](O)c3ccc(O)c(NS(C)(=O)=O)c3)CC2)cc1 [Example 87, N-[5-[(R)-2-[[[1-[[4-[[[[(2,5-Difluorophenyl)methyl]-methylamino]-carbonyl]amino]-phenyl]sulfonyl]-4-piperidinyl]methyl]amino]-1-hydroxyethyl]-2-hydroxyphenyl]-methanesulfonamide] |
| 22 nM | 1 | COC(=O)COc1ccc(CNC(=O)Nc2ccc(S(=O)(=O)N3CCC(CNC[C@H](O)c4ccc(O)c(NS(C)(=O)=O)c4)CC3)cc2)c(F)c1 [Example 88, [3-Fluoro-4-[[[[[4-[[4-[[[(R)-2-hydroxy-2-[4-hydroxy-3-[(methylsulfonyl)amino]-phenyl]ethyl]amino]-methyl]-1-piperidinyl]sulfonyl]phenyl]amino]-carbonyl]-amino]methyl]phenoxy]acetic Acid, Methyl Ester] |
| 35 nM | – | CS(=O)(=O)Nc1cc([C@@H](O)CNCC2CCN(S(=O)(=O)c3ccc(NC(=O)NCc4ccc(OCC(=O)O)cc4F)cc3)CC2)ccc1O [Example 89, [3-Fluoro-4-[[[[[4-[[4-[[[(R)-2-hydroxy-2-[4-hydroxy-3-[(methylsulfonyl)amino]phenyl]-ethy]amino]-methyl]-1-piperidinyl]sulfonyl]phenyl]amino]carbonyl]-amino]-methyl]phenoxy]acetic Acid] |
| 269 nM | 0.91 | CCCCCCC(=O)Nc1ccc(S(=O)(=O)N2CCC(CNC[C@H](O)COc3ccc(O)cc3)CC2)cc1 [Example 90, Heptanoic Acid [4-(4-{[(2S)-2-Hydroxy-3-(4-hydroxy-phenoxy)-propylamino]-methyl}-piperidine-1-sulfonyl)-phenyl]-amide] |
| 110 nM | 0.72 | O=C(NCc1c(F)cccc1F)c1ccc(S(=O)(=O)N2CCC(CNC[C@H](O)COc3ccc(O)cc3)CC2)cc1 [Example 91, N-(2,6-Difluoro-benzyl)-4-(4-{[(2S)-2-hydroxy-3-(4-hydroxy-phenoxy)-propylamino]-methyl}-piperidine-1-sulfonyl)-benzamide] |
| 160 nM | 0.82 | O=C(Nc1ccc(S(=O)(=O)N2CCC(CNC[C@H](O)COc3ccc(O)cc3)CC2)cc1)c1n[nH]c2ccccc12 [Example 92, 1H-Indazole-3-carboxylic Acid [4-(4-{[(2S)-2-Hydroxy-3-(4-hydroxy-phenoxy)-propylamino]-methyl}-piperidine-1-sulfonyl)-phenyl]-amide] |
| 510 nM | 0.76 | CN1CCN(c2ccc(S(=O)(=O)N3CCC(CNC[C@H](O)COc4ccc(O)cc4)CC3)cc2)C1=O [Example 94, 1-[4-(4-{[2-Hydroxy-3-(4-hydroxy-phenoxy)-propylamino]-methyl}-piperidine-1-sulfonyl)-phenyl]-3-methyl-imidazolidin-2-one] |
| 125 nM | 0.82 | CCOC(=O)c1cc2ccccc2n1-c1ccc(S(=O)(=O)N2CCC(CNC[C@H](O)c3ccc(O)c(NS(C)(=O)=O)c3)CC2)cc1 [Example 95, 1-[4-(4-{[(2R)-2-Hydroxy-2-(4-hydroxy-3-methanesulfonylamino-phenyl)-ethyl-amino]-methyl}-piperidine-1-sulfonyl)-phenyl]-1H-indole-2-carboxalic Acid Ethyl Ester] |
| 13 nM | 0.85 | CCOC(=O)Cc1cn(-c2ccc(S(=O)(=O)N3CCC(CNC[C@H](O)c4ccc(O)c(NS(C)(=O)=O)c4)CC3)cc2)c2ccccc12 [Example 96, {1-[4-(4-{[(2R)-2-Hydroxy-2-(4-hydroxy-3-methanesulfonylamino-phenyl)-ethylamino]-methyl}-piperidine-1-sulfonyl)-phenyl]-1H-indol-3-yl}-acetic Acid Ethyl Ester] |
| 11 nM | 0.96 | CS(=O)(=O)Nc1cc([C@@H](O)CNCC2CCN(S(=O)(=O)c3ccc(-n4cc(CC(=O)O)c5ccccc54)cc3)CC2)ccc1O [Example 97, {1-[4-(4-{[(2R)-2-Hydroxy-2-(4-hydroxy-3-methanesulfonylamino-phenyl)-ethylamino]-methyl}-piperidine-1-sulfonyl)-phenyl]-1H-indol-3-yl}-acetic Acid] |

| SMILES | EC50 | IA(β3) |
| --- | --- | --- |
| CC(C)N(Cc1cc(F)ccc1F)C(=O)Nc1ccc(S(=O)(=O)N2CCC(CNC[C@H](O)c3ccc(O)c(NS(C)(=O)=O)c3)CC2)cc1 [Example 86] | 3 nM | 0.78 |

Source: patent publication US6506901B2, “Substituted 2-(S)-hydroxy-3-(piperidin-4-yl-methylamino)-propyl ethers and substituted 2-aryl-2-(R)-hydroxy-1-(piperidin-4-yl-methyl)-ethylamine β-3 adrenergic receptor agonists” (Wyeth, priority 2000, dated 2003)
